Patent US20240352066A1, “ANTIMICROBIAL COMPOUNDS AND THE METHOD OF USE” (priority 2021, published 2024)
Converted amounts (≈) assume the structure as drawn. Where a SMILES comes first, the peptide text is derived from it. [ ]: non-standard residue; d: D form. N(tridecyl)Gly = CCCCCCCCCCCCCNCC(=O)O; Gly(N-2-aminoethyl) = NCCNCC(=O)O; Gly(N-cHex) = O=C(O)CNC1CCCCC1; Nleu = CC(C)CNCC(=O)O; Nlys = NCCCCNCC(=O)O

Assays:
[1] = Percent acetonitrile at elution during RP-HPLC purification (hydrophobicity); type: physicochemical; conditions: percent acetonitrile at the time of elution from HPLC
Text: All RMG8-8 derivatives were synthesized via the solid-phase submonomer synthesis method on polystyrene Rink Amide resin (Zuckermann et al. Journal of the American Chemical Society 114, 10646-10647 (1992)). The amines used during synthesis and the peptoid shorthand notations for each monomer are provided in Table 7 and Table 8, respectively. Compounds were purified to greater than 95% by RP-HPLC and compound identity was confirmed by ESI-TOF MS (Table 9). The calculated distribution coefficient at pH 7.4 (c Log D7.4) (via Chemaxon. MarvinSketch 19.17.0, 2019) and the percent acetonitrile at the time of elution during HPLC purification were recorded and serve as measures of hydrophobicity (Table 10). Higher values for c Log D7.4 and percent acetonitrile are indicators of increased compound hydrophobicity. With antimicrobial peptoids, hydrophobicity is directly related to both antimicrobial activity and cytotoxicity (Andreev et al. Biochimica et biophysica acta. Biomembranes 1860 6, 1414-1423 (2018); Bolt et al. Med chem comm 8, 886-896 (2017); Frederiksen et al. Molecules 24, (2019)). The ideal balance of these parameters generally must be determined experimentally. To measure antifungal activity, the minimum inhibitory concentration (MIC), defined as the concentration of compound required to inhibit 90% of fungal growth, was determined against C. neoformans using the broth microdilution method. Mammalian cytotoxicity was evaluated through a cell metabolic activity assay with HepG2 liver carcinoma cells, and select, potentially promising compounds were tested for unwanted hemolytic activity against human red blood cells.
Peptoids were purified via Reversed-Phase High-Performance Liquid Chromatography (RP-HPLC) using a Varian Prepstar SD-1. A gradient of 0-100% water to acetonitrile containing 0.05% TFA made up the mobile phase, and a Supelco Ascentis C18 column (5 μm; 25 cm×21.2 mm; Sigma-Aldrich 581347-U) was used as the stationary phase. Peaks in the chromatogram above 0.1 AU were collected and analyzed via mass spectrometry. The peak product with the desired peptoid was dried down in vacuo and lyophilized overnight. Peptoids were then reconstituted in sterile […] deionized water to create compound stocks of 20 mg/mL.

[2] = in vitro; type: cell-based, mouse; conditions: mouse, 3T3 fibroblasts
Protocol: (§1) Hepatocellular carcinoma (HepG2), mouse fibroblast (3T3), human lung (HPL1A), and human keratinocyte (HaCat) cells were cultured in Dulbecco modified eagle media (DMEM) containing 10% fetal bovine serum (FBS) and 1% penicillin, streptomycin, and glutamine (PSG) at 37° C. and 5% CO2. Cells were collected and adjusted to […] to 4×10^5 cells/mL in phenol-red free DMEM and plated (100 μL) 96 well plates. 2-fold serial dilutions of 10× peptoid (11.1 μL) were added to each well in triplicate. Water (vehicle) was used as a negative control. Plates were incubated at 37° C. in 5% CO2 for 72 hours. Thiazolyl blue tetrazolium bromide (MTT) was added to each well (5 mg/mL; 20 μL) and incubated for 3 hours. Media was removed, DMSO (100 μL) was added, and plates were incubated at 37° C. for 10 minutes. Plates were read on a SpectraMax M5 plate reader (Abs. 570 nm). The concentration of compound resulting in a 50% reduction in growth compared to control (toxicity dose 50%; TD50) was determined using GraFit. This procedure was repeated three times on separate days.

[3] = test system: 3T3 fibroblasts; assay: in vitro; type: cell-based, mouse
Protocol: as §1

[4] = test system: Staphylococcus aureus ATCC 29213; type: cell-based; conditions: ATCC 29213, 24 h
Protocol: (§2) The minimum inhibitory concentration (MIC) of peptoids against the ESKAPE bacteria (Enterococcus faecium ATCC 6569; Staphylococcus aureus ATCC 29213; Klebsiella pneumoniae ATCC 13883; Acinetobacter 55aumannii ATCC 19606; Pseudomonas aeruginosa ATCC 25619; Enterococcus faecalis ATCC 29212; and Escherichia coli ATCC 25922) was determined following CLSI guidelines (CLSI. Methods for Dilution Antimicrobial Susceptibility Tests for Bacteria That Grow Aerobically, 11th Edition. (Clinical and Laboratory Standards Institute, 2018). The MIC against Mycobacterium smegmatis was also determined following CLSI guidelines (Woods et al., Susceptibility Testing of Mycobacteria, Nocardiae, and Other Aerobic Actinomycetes, 2nd edition. (2011)). Colonies picked from streaked tryptic soy agar plates were added to tryptic soy broth (TSB) to achieve a turbidity of OD600=0.08-0.15. Inoculant was diluted 1:200 into cation adjust Mueller Hinton Broth (CAVHB) and 90 μL was plated into each well of a 96 well black-wall plate. 2-fold serial dilutions of 10× peptoid (10 μL) were added to each well in triplicate and incubated at 37° C. for 24 hours for the ESKAPE bacteria and 72 hours for M. smegmatis. Tetracycline (20 μg/mL) was used as a positive control with DI water was used as a vehicle control. Following incubation for the ESKAPE bacteria, PrestoBlue (10 μL) was added to each well and incubated at 37° C. for one hour before measuring fluorescence on a SpectraMax M5 plate reader (Ex. 555 nm; Em. 585 nm). Following incubation for M. smegmatis, wells were scored following CLSI guidelines to determine MIC. This assay was repeated three times on separate days.

[5] = test system: Enterococcus faecalis ATCC 29212; type: cell-based; conditions: ATCC 29212, 24 h
Protocol: as §2

[6] = test system: Pseudomonas aeruginosa ATCC 25619; type: cell-based; conditions: ATCC 25619, 24 h
Protocol: as §2

[7] = test system: Enterococcus faecium ATCC 6569; type: cell-based; conditions: ATCC 6569, 24 h
Protocol: as §2

[8] = test system: Klebsiella pneumoniae ATCC 13883; type: cell-based; conditions: ATCC 13883, 24 h
Protocol: as §2

[9] = test system: Escherichia coli ATCC 25922; type: cell-based; conditions: ATCC 25922, 24 h
Protocol: as §2

[10] = test system: Mycobacterium smegmatis; type: cell-based; conditions: 72 h
Protocol: as §2

[11] = test system: A. baumannii; type: cell-based, Acinetobacter baumannii; conditions: 24 h
Protocol: as §2, with “2-fold serial dilutions of 10× peptoid (10 μL) were added to each well in triplicate and incubated at 37° C. for 24 hours for the ESKAPE bacteria and 72 hours for M. smegmatis. Tetracycline (20 μg/mL) was used as a positive control with DI water was used as a vehicle control.” left out, “This assay was repeated three times on separate days.” left out

SMILES | % ACN [1] | CC50 at 72 h [2] | TD50 3T3 [3] | MIC S. aureus [4] | MIC E. faecalis [5] | MIC P. aeruginosa [6] | MIC E. faecium [7] | MIC K. pneumoniae [8] | MIC E. coli [9] | MIC M. smegmatis [10] | proteolytic degradation / protein binding in human serum | MIC A. baumannii [11]
CCCCCCCCCCCCCNCC(=O)N(CC(=O)N(CCCCN)CC(=O)N(CCN)CC(=O)N(CC(N)=O)CC(C)C)CC(C)C [Compound 9] (H-[N(tridecyl)Gly][Nleu][Nlys][Gly(N-2-aminoethyl)][Nleu]-NH2) | 68.1% | – | – | – | – | – | – | – | – | – | – | –
CCCCCCCCCCCCCNCC(=O)N(CC(=O)N(CCCCN)CC(=O)N(CCN)CC(=O)N(CC(N)=O)C1CCCCC1)C1CCCCC1 [RMG8-8, Ntri-Ncha-Nlys-Nae-Ncha] (H-[N(tridecyl)Gly][Gly(N-cHex)][Nlys][Gly(N-2-aminoethyl)][Gly(N-cHex)]-NH2) | – | 59 ± 15 µg/mL (≈ 77.3 µM) | 59 µg/mL | 6.25 µg/mL (≈ 8.19 µM) | 6.25 µg/mL (≈ 8.19 µM) | 100 µg/mL (≈ 131 µM) | 6.25 µg/mL (≈ 8.19 µM) | 100 µg/mL (≈ 131 µM) | 12.5 µg/mL (≈ 16.4 µM) | 3.13 to 6.25 µg/mL | No proteolytic degradation or significant protein binding | 25 µg/mL (≈ 32.8 µM)
